Data reported in the RepoRT retention time repository.

Assay: RP, Waters ACQUITY Premier BEH C18, 100 × 2.1 mm, 1.7 µm, 40 °C, 0.3 to 0.4 mL/min, estimated dead time 0.73 min; A: water + 0.1% formic acid; B: acetonitrile + 0.1% formic acid; gradient (min/%B) 0/0.5 0.1/0.5 10/80 10.1/99.5 12/0.5 12.1/0.5 14.5/0.5
Settings: stereoisomer not certain

| LC retention time | Compound |
| --- | --- |
| 3.8 min | N[C@@H](Cc1ccc(O)c([N+](=O)[O-])c1)C(=O)O [3-NITRO-L-TYROSINE] |
| 4.29 min | O=C(O)CC1C(=O)Nc2ccccc21 (stereo unspecified) [3-OXINDOLE-3-ACETATE] |
| 4.78 min | O=C(C=Cc1ccc(O)c(O)c1)OC1CC(O)(C(=O)O)CC(O)C1OC(=O)C=Cc1ccc(O)c(O)c1 (stereo unspecified) [4,5-DI-O-CAFFEOYLQUINIC ACID] |
| 3.27 min | CC(=O)NCCCC(=O)O [4-ACETAMIDOBUTANOATE] |
| 1.32 min | CC(=O)Nc1ccc(OC2OC(C(=O)O)C(O)C(O)C2O)cc1 (stereo unspecified) [4-ACETAMIDOPHENYLGLUCURONIDE] |
| 4.47 min | Cc1cc(C(=O)O)ccc1O [4-HYDROXY-3-METHYLBENZOIC ACID] |
| 4.88 min | O=Cc1ccc(O)cc1 [4-HYDROXYBENZALDEHYDE] |
| 4.37 min | O=C(O)c1ccc(O)cc1 [4-HYDROXYBENZOATE] |
| 2.42 min | O=C(O)CNC(=O)c1ccc(O)cc1 [4-HYDROXYHIPPURIC ACID] |
| 5.12 min | CC(C(=O)O)c1ccc(O)cc1 (stereo unspecified) [4-HYDROXYPHENYL-2-PROPIONIC ACID] |
| 4.34 min | Cc1ccc(O)c(O)c1 [4-METHYLCATECHOL] |
| 3.4 min | Cc1ncc(CO)c(C(=O)O)c1O [4-PYRIDOXATE] |
| 3.01 min | O=C(O)c1ccnc2ccccc12 [4-QUINOLINECARBOXYLATE] |
| 6.08 min | COc1c(O)cc2oc(-c3ccc(O)cc3)cc(=O)c2c1O [5,7-DIHYDROXY-2-(4-HYDROXYPHENYL)-6-METHOXY-4H-CHROMEN-4-ONE] |
| 7.23 min | O=c1cc(-c2ccccc2)oc2cc(O)cc(O)c12 [5,7-DIHYDROXYFLAVONE] |
| 4.41 min | O=C(O)Cc1c[nH]c2ccc(O)cc12 [5-HYDROXYINDOLEACETATE] |
| 3.46 min | NC(Cc1c[nH]c2ccc(O)cc12)C(=O)O (stereo unspecified) [5-HYDROXYTRYPTOPHAN] |

| LC retention time | Compound |
| --- | --- |
| 5.46 min | COc1ccc(O)c(C(=O)O)c1 [5-METHOXYSALICYLIC ACID] |
| 7.21 min | O=C(O)CCCCc1ccccc1 [5-PHENYLVALERIC ACID] |
| 4.47 min | O=C(OC1Cc2c(O)cc(O)cc2OC1c1ccc(O)c(O)c1)c1cc(O)c(O)c(O)c1 (stereo unspecified) [(?)-EPICATECHIN GALLATE] |
| 7.48 min | CC1(C)C=Cc2c(ccc3c2OCC(c2ccc(O)cc2O)C3)O1 [(R)-GLABRIDIN] |
| 4.38 min | CC1OC(OC2C(O)C(OCCc3ccc(O)c(O)c3)OC(CO)C2OC(=O)C=Cc2ccc(O)c(O)c2)C(O)C(O)C1O (stereo unspecified) [ACTEOSIDE] |
| 0.945 min | NC(=O)c1ncn(C2OC(CO)C(O)C2O)c1N (stereo unspecified) [AICA-RIBOSIDE] |
| 1.28 min | NC(=O)c1ncn(C2OC(COP(=O)(O)O)C(O)C2O)c1N (stereo unspecified) [AICAR] |
| 5.1 min | O=C1c2c(O)cccc2C(C2OC(CO)C(O)C(O)C2O)c2cc(CO)cc(O)c21 (stereo unspecified) [ALOIN] |
| 0.943 min | NC(CCCC(=O)O)C(=O)O (stereo unspecified) [AMINOADIPATE] |
| 2.54 min | Nc1ccccc1S(=O)(=O)O [ANILINE-2-SULFONATE] |
| 6.02 min | O=c1cc(-c2ccc(O)cc2)oc2cc(O)cc(O)c12 [APIGENIN] |
| 1.12 min | OCC1OC(Oc2ccc(O)cc2)C(O)C(O)C1O (stereo unspecified) [ARBUTIN] |
| 6.63 min | COc1cc(CC2C(=O)OCC2Cc2ccc(OC)c(OC)c2)ccc1O (stereo unspecified) [ARCTIGENIN] |
| 5.17 min | O=C(O)C1OC(Oc2cc3oc(-c4ccccc4)cc(=O)c3c(O)c2O)C(O)C(O)C1O (stereo unspecified) [BAICALIN] |
| 4.51 min | O=C(O)c1ccccc1 [BENZOATE] |
| 7.15 min | COc1ccc(-c2coc3cc(O)cc(O)c3c2=O)cc1 [BIOCHANIN A] |

Second part, the compound before the results:

| Compound | LC retention time |
| --- | --- |
| Cn1c(=O)[nH]c(=O)c2[nH]cnc21 [3-METHYLXANTHINE] | 1.3 min |
| O=C1CC(C(=O)O)NC(=O)N1 (stereo unspecified) [4,5-DIHYDROOROTIC ACID] | 1.12 min |
| NC(N)=NCCCC(=O)O [4-GUANIDINOBUTANOATE] | 1.35 min |
| O=C(O)C1CCC(O)CC1 (stereo unspecified) [4-HYDROXYCYCLOHEXYLCARBOXYLIC ACID] | 4.05 min |
| O=C(O)Cc1cnc[nH]1 [4-IMIDAZOLEACETATE] | 0.92 min |
| CC1OC(n2cnc3c(N)ncnc32)C(O)C1O (stereo unspecified) [5'-DEOXYADENOSINE] | 3.5 min |
| Cc1cc2nc[nH]c2cc1C [5,6 DIMETHYLBENZIMIDAZOLE] | 4.48 min |
| CC(=O)Nc1c(NC=O)[nH]c(=O)n(C)c1=O [5-ACETYLAMINO-6-FORMYLAMINO-3-METHYLURACIL] | 1.11 min |
| CC(O)CCCC(=O)O (stereo unspecified) [5-HYDROXYHEXANOIC ACID] | 3.96 min |
| COc1ccc2[nH]cc(CCN)c2c1 [5-METHOXYTRYPTAMINE] | 3.73 min |
| Cc1cn(C2OC(CO)C(O)C2O)c(=O)nc1N (stereo unspecified) [5-METHYLCYTIDINE] | 2.36 min |
| Cc1cnc(=O)[nH]c1N [5-METHYLCYTOSINE] | 0.94 min |
| O=C1CCCCO1 [5-VALEROLACTONE] | 4.9 min |
| O=C(O)CCCCCC(=O)O [6-CARBOXYHEXANOATE] | 4.46 min |
| NCCc1cc(O)c(O)cc1O [6-HYDROXYDOPAMINE] | 1.31 min |
| O=C1CCCC(C(=O)O)N1 (stereo unspecified) [6-OXOPIPERIDINE-2-CARBOXYLIC ACID] | 1.34 min |
| CC1CCC2(C(=O)O)CCC3(C)C(=CCC4C5(C)CC(O)C(O)C(C)(CO)C5C(O)CC43C)C2C1C (stereo not drawn) [6BETA-HYDROXYASIATIC ACID] | 7.04 min |
| CC(O)CCCCCC(=O)O (stereo unspecified) [7-HYDROXYOCTANOIC ACID] | 4.96 min |
| CC(CCC(=O)O)C1CCC2C3C(=O)CC4CC(O)CCC4(C)C3CC(O)C12C (stereo unspecified) [7-KETODEOXYCHOLATE] | 6.88 min |
| Cn1cnc2[nH]c(=O)[nH]c(=O)c21 [7-METHYLXANTHINE] | 1.2 min |
| O=C(O)CCCCCCCO [8-HYDROXYOCTANOATE] | 5.04 min |
| O=C(O)CCCCCCCCCO [10-HYDROXYDECANOATE] | 6.11 min |
| CCCCCC(O)C(O)CC=CCCCCCCCC(=O)O (stereo unspecified) [12,13-DIHOME] | 7.5 min |
| CCCCCCC(O)CCCCCCCCCCC(=O)O (stereo unspecified) [12-HYDROXYSTEARIC ACID] | 8.29 min |
| O=C(O)CCCCCCCCCCCCCCCO [16-HYDROXY HEXADECANOIC ACID] | 7.82 min |
| Cc1cc2c(C(C)C)c(O)c(O)c(C=O)c2c(O)c1-c1c(C)cc2c(C(C)C)c(O)c(O)c(C=O)c2c1O [(-)-GOSSYPOL] | 8.49 min |
| CCCCCCC[C@@H](O)CC(=O)O [(R)-3-HYDROXYDECANOIC ACID] | 7.09 min |

| Compound | LC retention time |
| --- | --- |
| O=C(O)CCCCC1CCSS1 [(R)-LIPOIC ACID] | 6.93 min |
| CC(=O)C(C)O (stereo unspecified) [ACETOIN] | 3.5 min |
| CC(=O)OCC[N+](C)(C)C [ACETYLCHOLINE] | 0.961 min |
| Nc1ncnc2nc[nH]c12 [ADENINE] | 1.3 min |
| Nc1ncnc2c1ncn2C1OC(CO)C2OP(=O)(O)OC21 (stereo unspecified) [ADENOSINE 2',3'-CYCLIC PHOSPHATE] | 2.8 min |
| Nc1ncnc2c1ncn2C1OC(COP(=O)(O)O)C(OP(=O)(O)O)C1O (stereo unspecified) [ADENOSINE 3',5'-DIPHOSPHATE] | 1.11 min |
| Nc1ncnc2c1ncn2C1OC(COP(=O)([O-])OP(=O)([O-])OCC2OC(O)C(O)C2O)C(O)C1O (stereo unspecified) [ADENOSINE DIPHOSPHATE RIBOSE] | 0.954 min |
| Nc1ncnc2c1ncn2C1OC(COP(=O)(O)OS(=O)(=O)O)C(O)C1O (stereo unspecified) [ADENOSINE PHOSPHOSULFATE] | 1.22 min |
| Nc1ncnc2c1ncn2C1OC(COP(=O)(O)O)C(O)C1O (stereo unspecified) [ADENOSINE-MONOPHOSPHATE] | 1.35 min |
| Nc1ncnc2c1ncn2C1OC(CO)C(O)C1O (stereo unspecified) [ADENOSINE] | 3.28 min |
| O=C(O)CCCCC(=O)O [ADIPATE] | 3.99 min |
| Nc1ncnc2c1ncn2C1OC(COP(=O)(O)OP(=O)(O)OC2OC(CO)C(O)C(O)C2O)C(O)C1O (stereo unspecified) [ADP-GLUCOSE] | 1.16 min |
| O=c1ccc2cc(OC3OC(CO)C(O)C(O)C3O)c(O)cc2o1 (stereo unspecified) [AESCULIN] | 3.14 min |
| O=C(OCC1=CC(O)C2C=COC(OC3OC(CO)C(O)C(O)C3O)C12)c1ccc(O)cc1 (stereo unspecified) [AGNUSIDE] | 4.2 min |
| COc1c(O)cc2oc3cc(O)c(CC=C(C)C)c(O)c3c(=O)c2c1CC=C(C)C [ALPHA-MANGOSTIN] | 8.32 min |
| O=c1cc(-c2ccc(O)c(-c3c(O)cc(O)c4c(=O)cc(-c5ccc(O)cc5)oc34)c2)oc2cc(O)cc(O)c12 [AMENTOFLAVONE] | 6.35 min |
| N#CC(OC1OC(COC2OC(CO)C(O)C(O)C2O)C(O)C(O)C1O)c1ccccc1 (stereo unspecified) [AMYGDALIN] | 3.78 min |
| O=c1ccc2ccc3occc3c2o1 [ANGELICIN] | 6.41 min |
| CCCCCC=CCC=CCC=CCC=CCCCC(=O)O [ARACHIDONIC ACID] | 9 min |
| COC(=O)C1=CCCN(C)C1 [ARECOLINE] | 1.02 min |
| CC1CCC2(C(=O)O)CCC3(C)C(=CCC4C5(C)CC(O)C(O)C(C)(CO)C5CCC43C)C2C1C (stereo unspecified) [ASIATIC ACID] | 7.17 min |
| O=C(O)CCCCCCCC(=O)O [AZELATE] | 5.52 min |
| COc1c2ccoc2cc2oc(=O)ccc12 [BERGAPTEN] | 6.74 min |
| NC(=O)c1ccc[n+](C2OC(COP(=O)(O)OP(=O)(O)OCC3OC(n4cnc5c(N)ncnc54)C(O)C3O)C(O)C2O)c1 (stereo not drawn) [BETA-NICOTINAMIDE ADENINE DINUCLEOTIDE] | 2.13 min |
| CC(C)(C)C1(O)CC2OC(=O)CC23C(=O)OC2OC(=O)C(O)C231 (stereo unspecified) [BILOBALIDE] | 4.91 min |
| O=C(O)CCCCC1SCC2NC(=O)NC21 (stereo unspecified) [BIOTIN] | 4.59 min |
